Measured values taken from publication PMC11671014 (PLOS Pathogens, 2024).
Where “and” joins values, the source holds several entries; their conditions need not be identical. Identical values can stand only once. Like-named read-outs stand apart in the source and are kept apart here.

Columns and labels:
[1] = tested on: Dd2-B2 parasites; test: Minimum inoculum of resistance (MIR) selection; type: cell-based, Plasmodium falciparum; conditions: for IC50: DD2, read-out: in-house mean IC50; for IC50 fold shift (clones): 3 x IC50
Protocol: MIR studies were conducted for ML901 and ML471 using a modified “Gate keeper assay” [34]. […] For ML901, the parasites (starting parasite inoculums of 1x10^7 or 1x10^8 in triplicate) were subjected to pressure at 3 x IC50, with recrudescence on days 12–14. […] The different pressure regimens reflect the standard protocols in the Fidock lab used at the times of analysis. Wells were monitored daily by smear during the first seven days to ensure parasite clearance, during which media was changed daily. Thereafter, cultures were screened three times weekly by flow cytometry and smearing, and the selection maintained a consistent drug pressure over 60 days. […] Whole-genome sequencing analysis identified CNVs in chromosome 8 segments, always containing the PfTyrRS locus, consistent with our earlier evidence of this as the target of ML901 [16]. Single nucleotide polymorphism (SNP) filtering was lowered to 0.5 allelic balance (AB) but yielded no point mutations in the core genome.

[2] = tested on: stage V NF54 strain male and female gametocytes; set-up: method as in ref [1] Xie et al., Science 2022; conditions: 48 h, ref [1] Xie et al., Science 2022, cited from earlier work
[3] = Caco-2 permeability; type: in vitro ADME; conditions: human
Protocol: Permeability studies were performed as described previously. In brief, Caco-2 cells were cultured for 21–25 days to differentiate them into enterocyte-like cells. The transepithelial electrical resistance (TEER) was measured to ensure tight junction formation and cells with TEER value more than 250 ohms.cm^2 were used in the study. On the day of the transport study, cells were washed with warm HBSS buffer and equilibrated with buffer for 60 min. ML471 was added at a concentration of 5 μM (containing 50 μM Lucifer Yellow) into a 24 Transwell cell plate (apical 210 μL and basal 1000 μL) and buffer was added in the receiver side. Cells were incubated at 37°C for 60 min and 120 μL aliquots were taken from the receiver side after 30 and 60 min. Samples were mixed with 100 nM carbutamide in acetonitrile (ACN) containing 0.1% formic acid (internal standard). Samples were centrifuged at 2,056 x g for 10 min and the supernatant was collected and analyzed for quantification of the test article by LC-MS [49].

[4] = tested on: P. falciparum Brazilian field isolates; test: Ex vivo drug susceptibility of Brazilian field isolates (P. falciparum); type: cell-based; conditions: Plasmodium falciparum
Protocol: Compounds were assayed on ten P. vivax isolates and seven P. falciparum Brazilian isolates collected from mono-infected patients, who had signed a written informed consent form to participate in the study, using previously described methods. The initial parasitemia ranged from 2,100–8,000 parasites/μL for P. vivax and 3,500–9,000 parasites/μL for P. falciparum isolates. Artesunate and chloroquine were assayed in parallel as standard compounds. The analyses included only the isolates that were incubated for ≥ 40 h with the compounds.

[5] = Blood exposure in the P. falciparum infected SCID mouse model; type: in vivo, NODscidIL2Rγ^null mice engrafted with human RBCs; conditions: for Cmax / Tmax / AUC(0-t): female, mouse, whole blood, po
Protocol: The model using P. falciparum Pf3D7^0087/N9 in NODscidIL2Rγ^null mice engrafted with human RBCs was adapted from a previously described procedure. Female NODscidIL2Rγ^null mice were purchased from Charles River (Germany). Briefly, two engrafted mice/dosing group (females, 20–22 g) were infected intravenously with 2 x 10^7 P. falciparum (Pf3D7^0087/N9) on day 0. The antimalarial efficacy was assessed following administration (p.o.) of 100 or 200 mg/kg of compound or of 4 daily doses of 50 mg/kg, initiated on day 3 post-infection. The effect on blood parasitemia was measured by microscopic analysis of Giemsa-stained blood smears (on days 3, 4, 5, 6 and 7 post-infection). Mice were euthanized on day 7. Animal were monitored for symptoms of acute toxicity, including decreased activity, sunken flanks, ataxia and blood in faeces.
On day 3, blood samples (20 μL) were obtained at time points up to 24 h after the first administration. Protein was precipitated with acetonitrile and the remaining compound was assessed by LC-MS/MS in the selected reaction monitoring mode using HESI ionization in positive ion mode.

[6] = tested on: P. falciparum (strain 3D7A); test: Parasite Reduction Rate (PRR) estimation; type: cell-based, Plasmodium falciparum; conditions: 10 x IC50
Protocol: PRR was assessed using a standardized method. P. falciparum (strain 3D7A, MRA-151), contributed by David Walliker, was obtained through BEI Resources, NIAID, NIH. Cultures of parasites (~90% ring stage) were treated with compounds for 120 h, with daily renewal. Samples of parasites were taken at 0, 24, 48, 72, 96 and 120 h. Compounds were washed out and four independent 3-fold serial dilutions were established in 96-well plates, with fresh RBCs and culture medium. After 18 days, and again at 22 days, samples were taken to examine growth using SYBR Green I in an EnVision Multilabel Plate Reader (Perkin Elmer) and analysed using Excel and Grafit 5.0 software. The human biological samples were sourced ethically, and their research use was in accord with the terms of the informed consents under an IRB/EC approved protocol.

[7] = 1 x 100 mg/kg p.o., mice M1, M2
[8] = 1 x 200 mg/kg p.o., mice M3, M4
[9] = 4 days x 50 mg/kg p.o., after first dose, blood
[10] = 4 days x 50 mg/kg p.o., mice M1, M2

For `Nc1ncnc2c1c(OC(F)F)nn2[C@@H]1O[C@H](COS(N)(=O)=O)[C@@H](O)[C@H]1O` [ML901], the IC50 ([1]; Plasmodium falciparum) was 2.6 ± 0.05 nM, the “IC50 fold shift (clones)” value ([1]; selection with 10^7 parasites) was 2-3 x IC50 and the “IC50 fold shift (clones)” value ([1]; selection with 10^8 parasites) was 3-6 x IC50. The IC50 ([2]; female, read-out: Dual gamete formation assay (female) IC50(48h)) was 4700 nM and the IC50 ([2]; male, read-out: Dual gamete formation assay (male) IC50(48h)) was 130 ± 10 nM.

For `CC(C)c1nn([C@@H]2O[C@H](COS(N)(=O)=O)[C@@H](O)[C@H]2O)c2ncnc(N)c12` [ML471, ((2R,3S,4R,5R)-5-(4-amino-3-isopropyl-1H-pyrazolo[3,4-d]pyrimidin-1-yl)-3,4-dihydroxytetrahydrofuran-2-yl)methyl sulfamate], the IC50 ([1]; Plasmodium falciparum) was 1.45 nM, the IC90 ([1]; Plasmodium falciparum, DD2, read-out: mean IC90) was 1.99 nM and the IC50 shift ([1]; selection with 2x10^5 parasites, 10 x IC50) was 9-16 xIC50. For the same molecule, the Papp A→B at 60 min, 5 μM ([3]; 5 μM, 60 min, second figure of the cell, read-out: Caco2 Papp (A to B)) was 0.17 ×10⁻⁶ cm/s, the Papp B→A at 60 min, 5 μM ([3]; 5 μM, 60 min, third figure of the cell, read-out: Caco2 Papp (B to A)) was 1.3 ×10⁻⁶ cm/s and the efflux ratio at 60 min, 5 μM ([3]; equals B to A / A to B, read-out: Caco2, first figure of the cell, not given) was 7.6. The EC50 ([4]; range over n = 7 isolates, read-out: EC50 range, P. falciparum Brazilian field isolates) was 2.5 to 4.9 nM, the EC50 ([4]; read-out: Median EC50, P. falciparum Brazilian field isolates) was 4.2 nM and the “AUC0-120h/dose (mean)” value ([5]; 1 x 100 mg/kg p.o., blood) was 2,500 (h*ng/mL)/(mg/kg). For the same molecule, the “Cmax/dose (mean)” value ([5]; 1 x 100 mg/kg p.o., blood) was 33.5 (ng/mL)/(mg/kg), the “AUC0-120h (individual mice)” value [5, 7] was 260,000 h*ng/mL and the “AUC0-120h/dose (individual mice)” value [5, 7] was 2,390 (h*ng/mL)/(mg/kg) and 2,600 (h*ng/mL)/(mg/kg). The “Cmax (individual mice)” value [5, 7] was 3,600 ng/mL, the “Cmax/dose (individual mice)” value [5, 7] was 31 (ng/mL)/(mg/kg) and 36 (ng/mL)/(mg/kg) and the “AUC0-120h/dose (mean)” value ([5]; 1 x 200 mg/kg p.o., blood) was 1,070 (h*ng/mL)/(mg/kg). The “Cmax/dose (mean)” value ([5]; 1 x 200 mg/kg p.o., blood) was 18.8 (ng/mL)/(mg/kg), the “AUC0-120h (individual mice)” value [5, 8] was 259,000 h*ng/mL and the “AUC0-120h/dose (individual mice)” value [5, 8] was 855 (h*ng/mL)/(mg/kg) and 1,290 (h*ng/mL)/(mg/kg). For the same molecule, the “Cmax (individual mice)” value [5, 8] was 4,180 ng/mL, the “Cmax/dose (individual mice)” value [5, 8] was 16.7 (ng/mL)/(mg/kg) and 20.9 (ng/mL)/(mg/kg) and the “AUC0-24h/dose (mean)” value [5, 9] was 422 (h*ng/mL)/(mg/kg). For the same molecule, the “Cmax/dose (mean)” value [5, 9] was 19.3 (ng/mL)/(mg/kg), the “AUC0-24h (individual mice)” value [5, 10] was 22,572 h*ng/mL and the “AUC0-24h/dose (individual mice)” value [5, 10] was 451 (h*ng/mL)/(mg/kg) and 392 (h*ng/mL)/(mg/kg). For the same molecule, the “Cmax (individual mice)” value [5, 10] was 1,040 ng/mL, the “Cmax/dose (individual mice)” value [5, 10] was 17.8 (ng/mL)/(mg/kg) and 20.8 (ng/mL)/(mg/kg) and the “Tmax (individual mice)” value [5, 10] was 24 h. The Cmax ([5]; NODscidIL2Rγ^null, 50 mg/kg, 4 days x 50 mg/kg p.o., after first dose, blood, read-out: Cmax (mean)) was 964 ng/mL, the Tmax ([5]; NODscidIL2Rγ^null, 50 mg/kg, 4 days x 50 mg/kg p.o., after first dose, blood, read-out: Tmax (mean)) was 15 h and the AUC(0-t) ([5]; NODscidIL2Rγ^null, 50 mg/kg, 4 days x 50 mg/kg p.o., mice M1, M2, read-out: AUC0-24h (individual mice)) was 19.6 µg·h/mL. It also gave a Cmax ([5]; NODscidIL2Rγ^null, 50 mg/kg, 4 days x 50 mg/kg p.o., mice M1, M2, read-out: Cmax (individual mice)) of 888 ng/mL, a Cmax ([5]; NODscidIL2Rγ^null, 100 mg/kg, 1 x 100 mg/kg p.o., blood, read-out: Cmax (mean)) of 3350 ng/mL and a Tmax ([5]; NODscidIL2Rγ^null, 100 mg/kg, 1 x 100 mg/kg p.o., blood, read-out: Tmax (mean)) of 5 h. For the same molecule, the AUC(0-t) ([5]; NODscidIL2Rγ^null, 100 mg/kg, 1 x 100 mg/kg p.o., mice M1, M2, read-out: AUC0-120h (individual mice)) was 239 µg·h/mL, the Cmax ([5]; NODscidIL2Rγ^null, 100 mg/kg, 1 x 100 mg/kg p.o., mice M1, M2, read-out: Cmax (individual mice)) was 3100 ng/mL and the Tmax ([5]; NODscidIL2Rγ^null, 100 mg/kg, 1 x 100 mg/kg p.o., mice M1, M2, read-out: Tmax (individual mice)) was 4 h. It also gave a Cmax ([5]; NODscidIL2Rγ^null, 200 mg/kg, 1 x 200 mg/kg p.o., blood, read-out: Cmax (mean)) of 3760 ng/mL, a Tmax ([5]; NODscidIL2Rγ^null, 200 mg/kg, 1 x 200 mg/kg p.o., blood, read-out: Tmax (mean)) of 4 h and an AUC(0-t) ([5]; NODscidIL2Rγ^null, 200 mg/kg, 1 x 200 mg/kg p.o., mice M3, M4, read-out: AUC0-120h (individual mice)) of 171 µg·h/mL. For the same molecule, the Cmax ([5]; NODscidIL2Rγ^null, 200 mg/kg, 1 x 200 mg/kg p.o., mice M3, M4, read-out: Cmax (individual mice)) was 3340 ng/mL, the Tmax ([5]; NODscidIL2Rγ^null, 200 mg/kg, 1 x 200 mg/kg p.o., mice M3, M4, read-out: Tmax (individual mice)) was 4 h and the AUC(0-t) ([5]; NODscidIL2Rγnull engrafted with human RBCs, 50 mg/kg, 4 x 50 mg/kg p.o., at 24 h after the first dose, read-out: AUC0-24h) was 54 µM·h. For the same molecule, the AUC(0-t) ([5]; NODscidIL2Rγnull engrafted with human RBCs, 50 mg/kg, 4 days x 50 mg/kg p.o., after first dose, blood, read-out: AUC0-24h (mean)) was 21.1 µg·h/mL, the AUC(0-t) ([5]; NODscidIL2Rγnull engrafted with human RBCs, 100 mg/kg, 1 x 100 mg/kg p.o., blood, read-out: AUC0-120h (mean)) was 250 µg·h/mL and the AUC(0-t) ([5]; NODscidIL2Rγnull engrafted with human RBCs, 100 mg/kg, single dose 100 mg/kg p.o., read-out: AUC0-120h) was 640 µM·h. It also gave an AUC(0-t) ([5]; NODscidIL2Rγnull engrafted with human RBCs, 200 mg/kg, 1 x 200 mg/kg p.o., blood, read-out: AUC0-120h (mean)) of 215 µg·h/mL, an AUC(0-t) ([5]; NODscidIL2Rγnull engrafted with human RBCs, 200 mg/kg, single dose 200 mg/kg p.o., read-out: AUC0-120h) of 550 µM·h and a Lag phase [6] of 0 h. For the same molecule, the “Log PRR” value [6] was 4.1, the PCT99.9% [6] was 32 h and the Slope [6] was -0.09.
